Laboratory results from ChEMBL document CHEMBL2401650, “Selective inhibition of human acetylcholinesterase by xanthine derivatives: in vitro inhibition and molecular modeling investigations” (Bioorg Med Chem Lett, 2013).

Tests used:
[1] = target: Cholinesterase (Homo sapiens, UniProt P06276)
Description: Inhibition of human BuChE using S-butyrylthiocholine iodide as substrate treated 5 mins before substrate addition measured up to 4 mins by Ellman's method

[2] = target: Acetylcholinesterase (Homo sapiens, UniProt P22303); experiment: Inhibition of human AChE using acetylthiocholine iodide as substrate treated 5 mins before substrate addition measured up to 4 mins by Ellman's method
Chain of Acetylcholinesterase (P22303 whole entry): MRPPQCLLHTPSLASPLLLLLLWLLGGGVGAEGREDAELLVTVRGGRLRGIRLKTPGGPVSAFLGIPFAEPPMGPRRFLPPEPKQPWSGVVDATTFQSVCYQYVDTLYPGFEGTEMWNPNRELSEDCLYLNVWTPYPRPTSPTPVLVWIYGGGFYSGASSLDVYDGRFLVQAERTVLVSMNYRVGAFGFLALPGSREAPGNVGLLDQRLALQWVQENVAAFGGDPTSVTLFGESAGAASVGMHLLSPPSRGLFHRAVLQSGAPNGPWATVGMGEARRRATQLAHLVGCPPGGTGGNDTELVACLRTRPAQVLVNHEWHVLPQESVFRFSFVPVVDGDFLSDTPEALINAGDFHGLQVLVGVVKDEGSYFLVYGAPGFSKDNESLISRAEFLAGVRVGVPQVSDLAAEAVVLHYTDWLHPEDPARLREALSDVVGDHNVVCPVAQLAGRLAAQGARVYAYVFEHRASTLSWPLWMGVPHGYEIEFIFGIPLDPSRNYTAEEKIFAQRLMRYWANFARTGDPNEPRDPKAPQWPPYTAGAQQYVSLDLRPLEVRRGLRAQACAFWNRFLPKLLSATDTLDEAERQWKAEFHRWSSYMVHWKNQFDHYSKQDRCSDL

Chain of Cholinesterase (P06276 whole entry): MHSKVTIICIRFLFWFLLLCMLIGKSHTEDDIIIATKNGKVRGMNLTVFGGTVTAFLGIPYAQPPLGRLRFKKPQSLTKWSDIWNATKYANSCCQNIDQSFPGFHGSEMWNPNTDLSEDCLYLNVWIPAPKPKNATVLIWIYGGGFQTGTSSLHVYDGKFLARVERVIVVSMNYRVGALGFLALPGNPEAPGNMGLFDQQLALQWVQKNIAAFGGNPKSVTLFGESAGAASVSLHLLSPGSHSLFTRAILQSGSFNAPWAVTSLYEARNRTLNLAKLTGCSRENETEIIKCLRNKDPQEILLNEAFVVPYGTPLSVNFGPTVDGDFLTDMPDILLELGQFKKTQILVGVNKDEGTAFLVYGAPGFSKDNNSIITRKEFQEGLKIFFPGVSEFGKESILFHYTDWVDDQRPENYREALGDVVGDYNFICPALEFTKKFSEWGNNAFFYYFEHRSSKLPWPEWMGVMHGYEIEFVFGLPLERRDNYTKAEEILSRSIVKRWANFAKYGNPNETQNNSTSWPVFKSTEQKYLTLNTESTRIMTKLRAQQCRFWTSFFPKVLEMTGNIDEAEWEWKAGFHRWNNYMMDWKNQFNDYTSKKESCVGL

CC(=O)CCCCn1c(=O)c2c(ncn2C)n(C)c1=O [PENTOXIFYLLINE]
IC50 [1]: > 50 µM
IC50 [2]: 6.6 µM

CCCn1cnc2c1c(=O)n(CCCCC(C)=O)c(=O)n2C [PROPENTOFYLLINE]
IC50 [1]: > 50 µM
IC50 [2]: 6.4 µM

O=c1[nH]c(=O)c2[nH]cnc2[nH]1 [XANTHINE]
IC50 [1]: > 50 µM
IC50 [2]: 9 µM
